The IC50 is the point on the concentration scale where inhibition reaches its midpoint. The Emax is the size of the effect at its maximum, as opposed to the concentration needed.

The values below come from patent publication US12435087B2, “Modulators of DCN-1 and methods of use thereof” (Cellarity, Inc., priority 2023, dated 2025).

Each structure is given as a SMILES string. Read-outs that look alike come from different tables or passages of the source.

In test [1] the target is DCN1 (DCUND1) protein PONY domain (Homo sapiens (Human), UniProt Q96GG9). Description: TR-FRET assay (binding to DCN-1, displacement of FAM-labeled probe). The method, boiled down: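 Compounds read at 1, 5 and 24 h, 0.1% final DMSO, by TR-FRET between terbium-streptavidin on biotinylated DCN1 PONY domain (E. coli) and a FAM-tagged non-covalent inhibitor probe. Two setups used, 5 nM protein with 20 nM labelled probe, or 0.31 nM protein with 100 nM labelled plus 800 nM unlabelled probe; buffer had TritonX and 200 mM NaCl. % activity relative to high (with probe) and low (without probe) controls.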
On the technique in general: TR-FRET usually uses a lanthanide donor and a delayed reading to cut background.

The target of another test is DCN1 protein (Homo sapiens (Human), UniProt Q96GG9). Kind of test: Intact protein MS analysis with the RapidFire-TOF system (covalent adduct formation). Particulars: 400 nM DCN1, incubated at room temperature for 3 hours. The class given is binding. As for the experimental part: (§1) DCN1 protein, His-TEV-DCN1, were expressed in E. Coli. The His-tagged protein was first purified with an Ni-NTA column. The His-tag was cleaved using His-tag TEV protease and the His-tags were removed using a second Ni-NTA column. Protein purity was verified with SDS-PAGE and intact MS. DCN1 was dissolved in a buffer containing 25 mM Tris-HCl, 200 mM NaCl, and 1 mM DTT at 400 nM. 11 concentrations of compounds were added to the DCN1 solution and incubated at room temperature for 3 hours, unless otherwise specified. The reaction plates were quenched by adding 0.2% formic acid. Quenched assay plates were analyzed with an Agilent RapidFire 360 system connected to an Agilent 6545 Q-TOF mass spectrometer equipped with an AJS source. 10 μL of sample volume was loaded onto a custom packed cartridge (4 μL, PLRP-S 30 μm/1000 Å pore; Optimize Technologies) with loading buffer (ddH2O with 0.09% (vol/vol) formic acid and 0.01% (vol/vol) trifluoroacetic acid; 1.25 ml/min) for 6 seconds before being eluted directly into the mass spectrometer in elution buffer (80% acetonitrile with 0.09% (vol/vol) formic acid and 0.01% (vol/vol) trifluoroacetic acid; 0.5 ml/min) for 7 seconds. The cartridge was re-equilibrated with loading buffer for 1 second before collection of the next sample. The Q-TOF was operated in TOF-only positive ionization mode set to the following parameters: Gas Temp=350 C, Drying Gas=7 l/min, Nebulizer=50 psi, Sheath Gas Temp=400 C, Sheath Gas Flow=12 l/min, VCap=4000 V, Nozzle Voltage=1000 V, Fragmentor=125 V, Skimmer=65 V and Oct 1 RF Vpp=750V. Raw MS data files were deconvoluted and analyzed using the Agilent MassHunter Bioconfirm software package to identify both parent protein and expected compound adduct mass signatures.
An MS assay was performed to evaluate the ability of the compounds to covalently modify DCN-1.
as §1, with “Vcap=4000” for “VCap=4000”

Setting [2] is: 24 hr after treatment with compound, read-out: TR FRET IC50 24 hr.
[3] abbreviates: TR FRET IC50 1 hr (nM), 1 hr after treatment with compound.
[4] abbreviates: read-out: TR FRET IC50 1 hr, 1 hr after treatment with compound.

Sequence of DCN1 (DCUND1) protein PONY domain (Q96GG9 60-248): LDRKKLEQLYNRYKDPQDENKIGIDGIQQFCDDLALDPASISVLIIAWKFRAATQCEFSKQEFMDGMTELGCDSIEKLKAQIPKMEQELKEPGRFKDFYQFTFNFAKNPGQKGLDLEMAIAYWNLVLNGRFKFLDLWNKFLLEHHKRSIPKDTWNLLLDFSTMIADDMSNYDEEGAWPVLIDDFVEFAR
Sequence of DCN1 protein (Q96GG9 whole entry): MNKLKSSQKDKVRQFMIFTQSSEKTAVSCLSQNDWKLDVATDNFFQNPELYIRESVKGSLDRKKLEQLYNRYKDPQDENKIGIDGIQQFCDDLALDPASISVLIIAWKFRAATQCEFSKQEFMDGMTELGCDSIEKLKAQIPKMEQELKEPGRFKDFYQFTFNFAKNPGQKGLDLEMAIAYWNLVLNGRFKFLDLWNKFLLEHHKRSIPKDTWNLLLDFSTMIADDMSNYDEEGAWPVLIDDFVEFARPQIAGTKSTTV

In the case of `CCN1C(=O)[C@H](NC(=O)c2cccc(C(F)(F)F)c2)[C@@H](c2cccc(NC(=O)C#CCN(C)C)c2)c2c(C)nn(-c3ccccc3)c21` (racemic) [Compound I-133, rac-N-((4R,5S)-4-(3-(4-(dimethylamino)but-2-ynamido)phenyl)-7-ethyl-3-methyl-6-oxo-1-phenyl-4,5,6,7-tetrahydro-1H-pyrazolo[3,4-b]pyridin-5-yl)-3-(trifluoromethyl)benzamide], the IC50 in test [1] (setting [2]) and in test [1] (setting [3]) was at most 200 nM in each case. For the same compound, the Emax at DCN1 protein lay in the range of 80 to 100%.

As for `C/C=C(\CN1CCN(C2COC2)CC1)C(=O)NCc1cccc([C@@H]2c3cnn(-c4ccccc4)c3N(CC)C(=O)[C@H]2NC(=O)c2cccc(C(F)(F)F)c2)c1` [Compound I-222], the values for the IC50 in test [1] (setting [2]) and in test [1] (setting [3]) were at most 200 nM and 200 to 1000 nM, respectively. Moreover, at DCN1 protein, the Emax was 80 to 100%.

Regarding `C=C(C(=O)NCc1cccc([C@@H]2c3cnn(-c4ccccc4)c3N(CC)C(=O)[C@H]2NC(=O)c2nccc(C(F)(F)F)n2)c1)C(C)N(C)C1COC1` (some centres unmarked) [Compound I-217], the half-inhibitory concentration (IC50) in test [1] (setting [2]) and in test [1] (setting [4]) was at most 200 nM each time. This compound gave an Emax on DCN1 protein of 80 to 100%.

Turning to `C/C=C(\CN1CCN(C2COC2)CC1)C(=O)Nc1cccc([C@@H]2c3cnn(-c4ccccc4)c3N(CC)C(=O)[C@H]2NC(=O)c2ccn(C3CC3)n2)c1` [Compound I-233], the half-inhibitory concentration (IC50) in test [1] (setting [2]) and in test [1] (setting [3]) was at most 200 nM each time. Besides, the maximal effect (Emax) on DCN1 protein was in the range of 80 to 100%.

For the compound `C=C(CN1CCC(F)(F)C1)C(=O)Nc1cccc([C@@H]2c3c(C)nn(-c4ccccc4)c3N(CC)C(=O)[C@H]2NC(=O)c2nccc(C(F)(F)F)n2)c1` [Compound I-228], the IC50 in test [1] (setting [2]) and in test [1] (setting [4]) was at most 200 nM in each case. Moreover, the Emax on DCN1 protein lay within 80 to 100%.

Regarding `C/C=C(\CN1CCOCC1)C(=O)Nc1cccc([C@@H]2c3c(C)nn(-c4ccccc4)c3N(CC)C(=O)[C@H]2NC(=O)c2cccc(C(F)(F)F)c2)c1` (racemic) [Compound I-142], the IC50 in test [1] (setting [2]) and in test [1] (setting [3]) was at most 200 nM in each case. In addition, the Emax at DCN1 protein was in the range of 80 to 100%.

`CCN1C(=O)[C@H](NC(=O)c2cccc(C(F)(F)F)c2)[C@@H](c2cccc(NC(=O)C3=CCC3)c2)c2c(C)nn(-c3ccccc3)c21` (racemic) [Compound I-78, ˜{N}—[˜{rac}-(4˜{S},5˜{R})-4-[3-(cyclobutene-1-carbonylamino)phenyl]-7-ethyl-3-methyl-6-oxo-1-phenyl-4,5-dihydropyrazolo[3,4-b]pyridin-5-yl]-3-(trifluoromethyl)benzamide]: the figures for the IC50 in test [1] (setting [2]) and in test [1] (setting [3]) were 200 to 1000 nM and 1000 to 3000 nM, respectively. Besides, the Emax at DCN1 protein was 80 to 100%.

As to `CCN1C(=O)[C@@H](NC(=O)c2cccc(C(F)(F)F)c2)[C@@H](c2cccc(NC(=O)[C@H](F)Cl)c2)c2c(C)nn(-c3ccccc3)c21` (mixture of isomers) [Compound I-18], the half-maximal inhibitory concentration (IC50) in test [1] (setting [2]) and in test [1] (setting [3]) was above 3000 nM each time. Further, the maximum response (Emax) at DCN1 protein was 0 to 30%.

For `CCN1C(=O)[C@H](NC(=O)c2cccc(C(F)(F)F)c2)[C@@H](c2cccc(NC(=O)/C=C/CN3CCOCC3)c2)c2c(C)nn(-c3ccccc3)c21` (racemic) [Compound I-47], the values for the IC50 in test [1] (setting [2]) and in test [1] (setting [4]) were 1000 to 3000 nM and above 3000 nM, respectively. The compound further gave an Emax on DCN1 protein of 0 to 30%.

Take `CCN1C(=O)[C@@H](NC(=O)c2cccc(C(F)(F)F)c2)[C@@H](c2cccc(NC(=O)C3=CCCC3)c2)c2c(C)nn(-c3ccccc3)c21` (racemic) [Compound I-24]: the IC50 in test [1] (setting [2]) and in test [1] (setting [3]) was above 3000 nM throughout. The compound also gave an Emax on DCN1 protein of 0 to 30%.

For the compound `CCN1C(=O)[C@H](NC(=O)c2cccc(C(F)(F)F)c2)[C@@H](c2cccc(NC(=O)/C(C#N)=C/C(C)C)c2)c2c(C)nn(-c3ccccc3)c21` (racemic) [Compound I-46, rac-N-((4R,5S)-4-(3-((E)-2-cyano-4-methylpent-2-enamido)phenyl)-7-ethyl-3-methyl-6-oxo-1-phenyl-4,5,6,7-tetrahydro-1H-pyrazolo[3,4-b]pyridin-5-yl)-3-(trifluoromethyl)benzamide], the IC50 in test [1] (setting [2]) and in test [1] (setting [3]) was at most 200 nM throughout. In addition, on DCN1 protein, the Emax was 80 to 100%.

For `C=C(CN1CCOCC1)C(=O)NCc1cccc([C@@H]2c3cnn(-c4ccccc4)c3N(CC)C(=O)[C@H]2NC(=O)c2cccc(C(F)(F)F)c2)c1` [Compound I-62], the IC50 in test [1] (setting [2]) and in test [1] (setting [4]) was at most 200 nM throughout. Moreover, the maximal response (Emax) at DCN1 protein was 80 to 100%.

For `CCN1C(=O)[C@@H](NC(=O)c2cccc(C(F)(F)F)c2)[C@@H](c2cccc(NC(=O)/C=C/C(F)(F)F)c2)c2c(C)nn(-c3ccccc3)c21` (racemic) [Compound I-27], the IC50 in test [1] (setting [2]) and in test [1] (setting [3]) was above 3000 nM in each case. The Emax at DCN1 protein lay in the range of 0 to 30%.

In the case of `C=C(CN1CC(F)(F)C1)C(=O)Nc1cccc([C@@H]2c3c(C)nn(-c4ccccc4)c3N(CC)C(=O)[C@H]2NC(=O)c2cccc(C(F)(F)F)c2)c1` (racemic) [Compound I-11], the IC50 in test [1] (setting [2]) and in test [1] (setting [4]) was at most 200 nM each time. The compound further came in with a maximal effect (Emax) on DCN1 protein of 80 to 100%.

On to `CCN1C(=O)[C@H](NC(=O)c2cccc(C(F)(F)F)c2)[C@@H](c2cccc(NC(=O)/C=C/C(=O)OC)c2)c2c(C)nn(-c3ccccc3)c21` (racemic) [Compound I-141], for which the IC50 in test [1] (setting [2]) and in test [1] (setting [4]) was at most 200 nM in each case. In addition, the maximal effect (Emax) on DCN1 protein was in the range of 80 to 100%.

Consider `C/C=C(\CN1CCN(C2COC2)CC1)C(=O)Nc1cccc([C@@H]2c3cnn(-c4ccccc4)c3N(CC)C(=O)[C@H]2NC(=O)c2nccc(C(F)(F)F)n2)c1` [Compound I-232, N-((4R,5S)-7-ethyl-4-(3-((E)-2-((4-(oxetan-3-yl)piperazin-1-yl)methyl)but-2-enamido)phenyl)-6-oxo-1-phenyl-4,5,6,7-tetrahydro-1H-pyrazolo[3,4-b]pyridin-5-yl)-4-(trifluoromethyl)pyrimidine-2-carboxamide], for which the IC50 in test [1] (setting [2]) and in test [1] (setting [3]) was at most 200 nM throughout. The Emax at DCN1 protein is 80 to 100%.

Regarding `CCN1C(=O)[C@@H](NC(=O)c2nccc(C(F)(F)F)n2)[C@H](c2cccc(NC(=O)C3=CCN(C4COC4)C3)c2)c2c(C)nn(-c3ccccc3)c21` [Compound I-226], the IC50 in test [1] (setting [2]) was 200 to 1000 nM; in test [1] (setting [3]) it was 1000 to 3000 nM. On DCN1 protein, this compound showed an Emax of 0 to 30%.

For the compound `CC#CC(=O)Nc1ccccc1[C@H]1c2cnn(-c3ccccc3)c2N(CC)C(=O)[C@@H]1NC(=O)c1cccc(C(F)(F)F)c1` (racemic) [Compound I-159], the 50% inhibitory concentration (IC50) in test [1] (setting [2]) and in test [1] (setting [3]) was above 3000 nM throughout. Further, on DCN1 protein, the Emax lay in the range of 0 to 30%.

Consider `CCN1C(=O)[C@H](NC(=O)c2cccc(C(F)(F)F)c2)[C@@H](c2cccc(NC(=O)/C=C/CN(C)C)c2)c2c(C)nn(-c3ccccc3)c21` (racemic) [Compound I-38], for which, in test [1] (setting [3]), the half-inhibitory concentration (IC50) is 1000 to 3000 nM. Further, at DCN1 protein, the Emax was in the range of 80 to 100%.

Consider `CCN1C(=O)[C@@H](NC(=O)c2cccc(C(F)(F)F)c2)[C@@H](c2cccc(NC(=O)[C@H](C)Cl)c2)c2c(C)nn(-c3ccccc3)c21` (mixture of isomers) [Compound I-16], for which the IC50 in test [1] (setting [2]) and in test [1] (setting [4]) was above 3000 nM in each case. Besides, the maximal effect (Emax) at DCN1 protein is 0 to 30%.
